According to patent US10155756B2, “Pyrazolo[1,5-A]pyridine compounds and use thereof” (GUANGZHOU INSTITUTES OF BIOMEDICINE AND HEALTH, CHINESE …, priority 2014, dated 2018):
Converted amounts (≈) assume the structure as drawn. Structures can show the parent of a compound that is named as a salt. Where two headings read alike, the source gives them in different places.

How the values were obtained:
[1] = system: clinical sorted MDR-TB P103; assay: microbe, parasite or virus in culture; type: cell-based; details: Mycobacterium tuberculosis, MDRTBP103
[2] = system: clinical sorted MDR-TB P91; assay: microbe, parasite or virus in culture; type: cell-based; details: Mycobacterium tuberculosis, MDRTBP91
[3] = system: clinical sorted MDR-TB P105; assay: microbe, parasite or virus in culture; type: cell-based; details: Mycobacterium tuberculosis, MDRTBP105
[4] = system: Mycobacterium tuberculosis standard strain H37Rv; assay: MIC of Mycobacterium tuberculosis by a plate method; details: 7H11 plates, 37° C. for 4 weeks, colony count
[5] = system: self-luminescent tuberculosis; assay: microbe, parasite or virus in culture; type: cell-based
[6] = in vivo; parameters: species or system SD rats; details: rat; for bioavailability / AUC(0-inf) / Cmax / T^1/2 / Tmax: SD
Method: Example 55: Pharmacokinetic Studies of Compounds TJ170298 and TJ170385
1. Administration and Sample Collection a. Rat intravenous administration: SD rats 3, weight 180˜220 g. Fasting 12 h before administration, a small amount of food was allowed during the experiment, and water was free. The compounds TJ170298 and TJ170385 were administered intravenously at a dose of 2 mg/kg. The rats were respectively taken 0.3 mL orbital blood at 2 min, 10 min, 30 min, 1.0 h, 2.0 h, 3.0 h, 4.0 h, 6.0 h, 8.0 h, 12.0 h, 21 h, 24.0 h, 30 h, 36 h, 48 h, 60 h, 72 h after administration, which was then placed in heparinized test tube, centrifuged 10 min at 6000 rpm, and plasma was separated, preserved at 4° C. to be measured. […]
b. Rat oral administration: SD rats 3, weight 180˜220 g. Fasting for 12 h before administration, a small amount of food was allowed during the experiment, and water was free. The compounds TJ170298 and TJ170385 were orally administered at a dose of 10 mg/kg, respectively. The rats were respectively taken 0.3 mL orbital blood at 2 min, 10 min, 30 min, 1.0 h, 2.0 h, 3.0 h, 4.0 h, 6.0 h, 8.0 h, 12.0 h, 21 h, 24.0 h, 30 h, 36 h, 48 h, 60 h, 72 h after administration, which was then placed in heparinized test tube, centrifuged 10 min at 6000 rpm, and plasma was separated, preserved at 4° C. to be measured.
2. Determination of Plasma Samples a. Plasma Sample Treatment
150 μl of the internal standard solution ([…], acetonitrile solution) was added to 50 μL of the above plasma sample, mixed well; after eddy mixing for 2 min, centrifuge for 30 min (13000 rpm, 4° C.), supernatant was taken to another centriguge tube, and 20 μL of which was taken for LC/MS/MS analysis. […]
b. Preparation of Standard Curve
50 μL of rat blank plasma was taken, to which 10 μL of compound standard series solution was added to prepare compound plasma samples equivalent to plasma concentration of 20, 50, 100, 500, 1000, 2000, 4000, 6000, 12000, 40000 ng/mL. According to “plasma sample treatment” item, the standard curve was established. The concentration (X) of an analyte is as the abscissa, the peak area ratio (y) of the analyte and the internal standard is as the ordinate, and the regression is performed by the weighted (W=1/x2) least squares method to obtain the linear regression Equation, that is, the standard curve.
C. Data Processing and Analysis
The pharmacokinetic parameters of rats after administration were calculated by DAS 2.0 software.

[7] = system: mycobacterium tuberculosis self-luminescent bacteria H37Ra; details: for spleen anti-tuberculosis activity compared with the positive control Rifampicin: in vivo
[8] = system: Mycobacterium tuberculosis standard strain H37Rv; assay: Plate MIC of Example 53, standard strain H37Rv; type: cell-based
[9] = Mycobacterium tuberculosis, 72 h; read-out: MIClux
[10] = Mycobacterium tuberculosis, 72 h, read-out: MIClux

Q: With `CO[C@H]1/C=C/O[C@@]2(C)Oc3c(C)c(O)c4c(O)c(c(/C=N/N5CCN(C)CC5)c(O)c4c3C2=O)NC(=O)/C(C)=C\C=C\[C@H](C)[C@H](O)[C@@H](C)[C@@H](O)[C@@H](C)[C@H](OC(C)=O)[C@@H]1C` [RIF, rifampicin, reference compound] as the compound, how does the MIC [1] read?
A: > 10 µg/mL

Q: What about the MIC [2] of the same compound?
A: 1 to 10 µg/mL (≈ 1.22 to 12.2 µM)

Q: What about the MIC [3] of the same compound?
A: > 10 µg/mL

Q: For `NNC(=O)c1ccncc1` [isoniazid, reference compound], which MIC [4] is on record?
A: <=0.1 μg/mL

Q: Which MIC [5, 9] does the source give for `CCc1nn2ccc(Cl)cc2c1C(=O)NCc1ccc(C(F)(F)F)cc1` [TJ170322] here?
A: < 1 µg/mL

Q: And the MIC [4]?
A: 0.1 µg/mL

Q: What does the source list for `CCc1nn2ccc(Cl)cc2c1C(=O)NCc1ccc(N2CCC(c3ccc(OC(F)(F)F)cc3)CC2)cc1` [TJ170298 (hydrochloride), 5-chloro-2-ethyl-N-(4-(4-(4-(trifluoromethoxy)phenyl)piperidine-1-yl)benzyl) pyrazolo [1,5-a]pyridine-3-carboxamide]?
A: bioavailability [6]: 24.1%; AUC(0-inf) ([6]; iv, 2 mg/kg): 3900 ng·h/mL; Cmax ([6]; iv, 2 mg/kg): 1550 ng/mL; T^1/2 ([6]; iv, 2 mg/kg): 19.975 h; Tmax ([6]; iv, 2 mg/kg): 0.033 h; AUC(0-inf) ([6]; po, 10 mg/kg): 4700 ng·h/mL; Cmax ([6]; po, 10 mg/kg): 509 ng/mL; T^1/2 ([6]; po, 10 mg/kg): 19.699 h; Tmax ([6]; po, 10 mg/kg): 2 h

Q: Which MIC [5, 9] does the source give for `CCc1ccn2nc(C)c(C(=O)NCc3ccc(N4CCC(c5ccc(OC(F)(F)F)cc5)CC4)cc3)c2c1` [TJ830082, 5-ethyl-2-methyl-N-(4-(4-(4-(trifluoromethoxy)phenyl)piperidine-1-substituted)benzyl) pyrazolo [1,5-a] pyridine-3-carboxamide] here?
A: < 1 µg/mL

Q: With `Cc1nn2ccccc2c1C(=O)NCc1ccc(N2CCC(c3ccc(OC(F)(F)F)cc3)CC2)cc1` [TJ170381, 2-methyl-N-(4-(4-(4-(trifluoromethoxy)phenyl)piperidine-1-yl)benzyl) pyrazolo [1,5-a] pyridine-3-carboxamide] as the compound, how does the MIC [5, 10] read?
A: < 1 µg/mL

Q: What about the MIC [4] of the same compound?
A: 0.1 µg/mL

Q: For `CCc1nn2ccc(Cl)cc2c1C(=O)NCc1cn(-c2ccc(OC(F)(F)F)cc2)nn1` [TJ064983], which MIC [5, 9] is on record?
A: > 10 µg/mL

Q: With `Cc1nn2ccc(Br)cc2c1C(=O)NCc1ccc(N2CCC(c3ccc(OC(F)(F)F)cc3)CC2)cc1` [TJ830008, 5-bromo-2-methyl-N-(4-(4-(4-(trifluoromethoxy)phenyl)piperidine-1-yl)benzyl) pyrazolo [1,5-a] pyridine-3-carboxamide] as the compound, how does the MIC [5, 9] read?
A: < 1 µg/mL

Q: For `Cc1nn2c(C)cccc2c1C(=O)NCc1ccc(N2CCC(c3ccc(OC(F)(F)F)cc3)CC2)cc1` [TJ064851, 2,7-dimethyl-N-(4-(4-(4-(trifluoromethoxy)phenyl)piperidine-1-yl)benzyl) pyrazolo[1,5-a] pyridine-3-carboxamide], which MIC [5, 9] is on record?
A: 1 to 10 µg/mL (≈ 1.91 to 19.1 µM)

Q: Which MIC [5, 9] does the source give for `Cc1nn2ccc(Cl)cc2c1C(=O)NCc1ccc(N2CCC(c3ccc(OC(F)(F)F)cc3)CC2)cc1` [TJ170372, 5-chloro-2-methyl-N-(4-(4-(4-(trifluoromethoxy)phenyl)piperidine-1-yl)benzyl) pyrazolo [1,5-a] pyridine-3-carboxamide] here?
A: < 1 µg/mL

Q: What about the “in vivo anti-tuberculosis activity (luminous values within live mice)” value [7] of the same compound?
A: obvious in vivo anti-tuberculosis activity

Q: What about the “in vivo anti-tuberculosis activity compared with the positive control Rifampicin” value [7] of the same compound?
A: equal to or better than that of the positive control Rifampicin

Q: And the “spleen anti-tuberculosis activity compared with the positive control Rifampicin” value [7]?
A: bad than that of the positive control Rifampicin

Q: What about the MIC [4] of the same compound?
A: 0.01 µg/mL

Q: With `O=C(NCc1ccc(N2CCC(c3ccc(OC(F)(F)F)cc3)CC2)cc1)c1c(C2CC2)nn2ccc(Cl)cc12` [TJ170375, 5-chloro-2-cyclopropyl-N-(4-(4-(4-(trifluoromethoxy)phenyl)piperidine-1-substituted)benzyl) pyrazolo [1,5-a] pyridine-3-carboxamide] as the compound, how does the MIC [5, 9] read?
A: < 1 µg/mL

Q: And the MIC [4]?
A: 0.1 µg/mL

Q: With `CCc1nn2ccc(Cl)cc2c1C(=O)NCc1ccc(N2CCC(c3ccc(OC(F)(F)F)cc3)CC2)cc1` [TJ170298, 5-chloro-2-ethyl-N-(4-(4-(4-(trifluoromethoxy)phenyl)piperidine-1-yl)benzyl) pyrazolo [1,5-a]pyridine-3-carboxamide] as the compound, how does the MIC [5, 10] read?
A: < 1 µg/mL

Q: And the MIC [1]?
A: < 0.075 µg/mL

Q: And the “in vivo anti-tuberculosis activity (luminous values within live mice)” value [7]?
A: obvious in vivo anti-tuberculosis activity

Q: And the “in vivo anti-tuberculosis activity compared with the positive control Rifampicin” value [7]?
A: equal to or better than that of the positive control Rifampicin

Q: And the “spleen anti-tuberculosis activity compared with the positive control Rifampicin” value [7]?
A: bad than that of the positive control Rifampicin

Q: And the MIC [2]?
A: < 0.075 µg/mL

Q: What about the MIC [8] of the same compound?
A: 0.012 µg/mL

Q: And the “pharmacokinetic properties (in words)” value [6]?
A: good pharmacokinetic properties

Q: And the MIC [3]?
A: 0.15 µg/mL (≈ 0.269 µM)

Q: Which results are given for `Cc1ccn2nc(C)c(C(=O)NCc3ccc(N4CCC(c5ccc(OC(F)(F)F)cc5)CC4)cc3)c2c1` [TJ170385, 2,5-dimethyl-N-(4-(4-(4-(trifluoromethoxy)phenyl)piperidine-1-yl)benzyl) pyrazolo [1,5-a] pyridine-3-carboxamide]?
A: MIC [5, 10]: < 1 µg/mL; in vivo anti-tuberculosis activity (luminous values within live mice) [7]: obvious in vivo anti-tuberculosis activity; in vivo anti-tuberculosis activity compared with the positive control Rifampicin [7]: equal to or better than that of the positive control Rifampicin; spleen anti-tuberculosis activity compared with the positive control Rifampicin [7]: bad than that of the positive control Rifampicin; MIC [4]: 0.01 µg/mL; bioavailability [6]: 94.5%; AUC(0-inf) ([6]; iv, 2 mg/kg): 2030 ng·h/mL; Cmax ([6]; iv, 2 mg/kg): 1040 ng/mL; T^1/2 ([6]; iv, 2 mg/kg): 10.933 h; AUC(0-inf) ([6]; po, 10 mg/kg): 9590 ng·h/mL; Cmax ([6]; po, 10 mg/kg): 644 ng/mL; T^1/2 ([6]; po, 10 mg/kg): 27.374 h; Tmax ([6]; po, 10 mg/kg): 2 h; pharmacokinetic properties (in words) [6]: good pharmacokinetic properties

Q: Which MIC [5, 9] does the source give for `CCc1nn2ccc(OC)cc2c1C(=O)NCc1ccc(N2CCC(c3ccc(OC(F)(F)F)cc3)CC2)cc1` [TJ064889, 5-methoxy-2-ethyl-N-(4-(4-(4-(trifluoromethoxy)phenyl)piperidine-1-substituted)benzyl) pyrazolo[1,5-a] pyridine-3-carboxamide] here?
A: < 1 µg/mL

Q: Which MIC [5, 9] does the source give for `CCCc1nn2ccc(Cl)cc2c1C(=O)NCc1ccc(N2CCC(c3ccc(OC(F)(F)F)cc3)CC2)cc1` [TJ830134] here?
A: < 1 µg/mL

Q: With `Cc1ccn2nc(C)c(C(=O)NCc3ccc(N(C)C)cc3)c2c1` [TJ830136, N-(4-(dimethylamino)benzyl)-2,5-dimethylpyrazolo [1,5-a] pyridine-3-carboxamide] as the compound, how does the MIC [5, 9] read?
A: < 1 µg/mL
